TGI data for seven compounds are collected here from PubChem BioAssay (NCI).

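Where inhibition never reached the appropriate level, the endpoint shown equals the highest concentration tested. Otherwise, values were interpolated linearly from a five-concentration, 48-hour dose response in 96-well plates. TGI denotes the concentration required for complete inhibition of growth.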

What all share (assay): growth of human tumour cells (NCI), 48 h
Assay [1] relates to HOP-62 NSCLC.
The subject of assay [2] is CAKI-1 renal.
Assay [3] deals with SR leukemia.
The test system of assay [4] is UACC-257 melanoma.
For assay [5], the system named is MDA-N.
The subject of assay [6] is MCF7 breast.
The subject of assay [7] is OVCAR-4 ovarian.
In assay [8] the test system is 786-0 renal.
In assay [9] the test system is RPMI-8226 leukemia.
The subject of assay [10] is SK-MEL-2 melanoma.
Assay [11] has as its system HS 578T breast.
Assay [12] concerns IGROV1 ovarian.
For assay [13], the system named is OVCAR-8 ovarian.
For assay [14], the system named is RXF 393 renal.
The test system of assay [15] is A498 renal.
Assay [16] concerns T-47D breast.
The test system of assay [17] is MALME-3M melanoma.
Assay [18] has as its system UACC-62 melanoma.

For `O=C1C(Br)=C(Br)C(=O)c2ccc(=O)ccc21`, the TGI is more than 79.2 µM in assay [1]; 64.2 µM in [2]; 45 µM in [3]; 58.3 µM in [4]; 44.8 µM in assay [5]; 37.4 µM in [6]. Moreover, the TGI in assay [7] was 32.7 µM; in assay [8] it was 32.7 µM; in assay [9], 43 µM; in assay [10], more than 75.1 µM; in assay [11], more than 84.5 µM; in assay [12], more than 66.1 µM. Also, the TGI in [13] is 50.8 µM; in assay [14] it was 36.3 µM; in assay [15], more than 100 µM; in assay [16] it was 48.5 µM; in assay [17] it was 37.4 µM; in [18] it was 39.4 µM.

For the compound `C[C@]12[C@@H]3CC[C@H]1[C@@H](O)C(=O)N2CC3`, the TGI in [1], in assay [2], in [3], in assay [4], in assay [5] and in assay [6] was more than 100 µM each time. The TGI in assay [7], in assay [8], in assay [9], in assay [10], in assay [11] and in [12] was more than 100 µM each time. The TGI in assay [13], in assay [14], in [15], in [16], in assay [17] and in [18] was more than 100 µM each time.

On to `O=C1c2ccccc2C(=O)c2c(/C=C\N3CCCCC3)ccnc21`, for which the TGI stood at 13.9 µM in assay [1]; 39.5 µM in [2]; 35.9 µM in [3]; 3.22 µM in assay [4]; 0.352 µM in [5]; 4.01 µM in [6]. In addition, the TGI in [7] stood at 28.4 µM; in [8], 31.3 µM; in [9], 52.6 µM; in [10], 14 µM; in assay [11], 4.32 µM; in assay [12], 36.8 µM. Also, the TGI in assay [13] was 17.5 µM; in assay [14] it was 23.1 µM; in assay [15], 31.8 µM; in assay [16], more than 44 µM; in assay [17], 1.67 µM; in assay [18], 1.58 µM.

With `O=c1[nH]c(=O)c2c3n(cc2[nH]1)CCCCC3`, the TGI in [1], in assay [2], in [3], in assay [4], in assay [5] and in [6] was more than 100 µM each time. Moreover, the TGI in [7], in [8], in assay [9], in assay [11], in [12] and in [13] was more than 100 µM throughout. Moreover, the TGI in [14], in assay [15], in [16], in assay [17] and in assay [18] was more than 100 µM throughout.

Consider `COC(=O)c1cccc(C)c1C1CN=NC12Cc1cc(C)cc(C)c1C2=O` (stereo not given), for which the TGI in [1], in assay [2], in assay [3], in assay [4], in assay [5] and in [6] was more than 100 µM each time. The TGI in assay [7], in [8], in [9], in [11], in assay [12] and in [13] was more than 100 µM in each case. Moreover, the TGI in assay [14] is more than 100 µM; in [15] it was more than 100 µM; in [16], 53.7 µM; in [17], more than 100 µM.

`COc1cc(S(=O)(=O)Nc2ccc(-c3csc(N4C(=O)CSC4c4cccc(Oc5ccccc5)c4)n3)cc2)ccc1Cl` (stereo not given): the TGI in assay [1] was more than 100 µM; in [2], more than 100 µM; in assay [3] it was more than 100 µM; in [5], 75.8 µM; in assay [6], 51.7 µM; in [7], more than 100 µM. Further, the TGI in [8] was more than 100 µM; in [9] it was more than 100 µM; in assay [11], more than 100 µM; in assay [12], more than 100 µM; in assay [13], more than 100 µM; in [14] it was 52.8 µM. Also, the TGI in assay [15] was more than 100 µM; in assay [16] it was 33.9 µM; in assay [17], more than 100 µM; in assay [18], more than 100 µM.

Regarding `CC(C)=C[C@H]1C[C@H](C)[C@H]2CC[C@H](C)c3c2c1c(C)c1ncoc31`, the TGI in assay [2] came out at 35.5 µM; in [3] it was 40.9 µM; in assay [4] it was 33.5 µM; in [5] it was 34.2 µM; in assay [6] it was 30.5 µM; in [7], 34.1 µM. Moreover, the TGI in assay [8] was found to be 36.1 µM; in [9], 36.9 µM; in assay [10], 31.1 µM; in [11], 45 µM; in [12], 27 µM; in assay [13], 36.8 µM. The TGI came out at 25.7 µM in assay [14]; 34.9 µM in [15]; 37.9 µM in [16]; 29.5 µM in [17]; 32.9 µM in [18].
